Key:
[1] = target: T1, Lethal(3)malignant brain tumor-like protein 4 (Homo sapiens, UniProt Q8NA19); assay: Inhibition of L3MBTL4 by alpha-screening
T1 sequence (Q8NA19 whole entry): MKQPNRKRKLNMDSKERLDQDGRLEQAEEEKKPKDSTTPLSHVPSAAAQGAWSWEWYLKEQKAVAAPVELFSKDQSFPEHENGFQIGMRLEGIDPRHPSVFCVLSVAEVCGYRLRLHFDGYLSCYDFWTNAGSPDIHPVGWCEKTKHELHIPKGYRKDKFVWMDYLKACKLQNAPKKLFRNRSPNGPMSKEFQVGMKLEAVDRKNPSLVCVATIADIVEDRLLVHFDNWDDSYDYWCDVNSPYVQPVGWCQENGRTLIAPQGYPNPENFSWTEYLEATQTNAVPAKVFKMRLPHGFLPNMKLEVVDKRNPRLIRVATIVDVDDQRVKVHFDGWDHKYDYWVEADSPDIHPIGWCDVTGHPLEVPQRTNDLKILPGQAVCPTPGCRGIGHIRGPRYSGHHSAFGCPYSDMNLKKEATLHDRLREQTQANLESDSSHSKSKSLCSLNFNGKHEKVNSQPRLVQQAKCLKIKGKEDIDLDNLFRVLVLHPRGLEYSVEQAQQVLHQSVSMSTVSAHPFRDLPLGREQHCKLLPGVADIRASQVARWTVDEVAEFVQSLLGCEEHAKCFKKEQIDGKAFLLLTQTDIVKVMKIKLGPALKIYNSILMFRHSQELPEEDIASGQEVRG

[2] = target: MBT domain-containing protein 1 (Homo sapiens, UniProt Q05BQ5); assay: Inhibition of MBTD1 by alpha-screening
Sequence of MBT domain-containing protein 1 (Q05BQ5 whole entry, the tested form may be a part): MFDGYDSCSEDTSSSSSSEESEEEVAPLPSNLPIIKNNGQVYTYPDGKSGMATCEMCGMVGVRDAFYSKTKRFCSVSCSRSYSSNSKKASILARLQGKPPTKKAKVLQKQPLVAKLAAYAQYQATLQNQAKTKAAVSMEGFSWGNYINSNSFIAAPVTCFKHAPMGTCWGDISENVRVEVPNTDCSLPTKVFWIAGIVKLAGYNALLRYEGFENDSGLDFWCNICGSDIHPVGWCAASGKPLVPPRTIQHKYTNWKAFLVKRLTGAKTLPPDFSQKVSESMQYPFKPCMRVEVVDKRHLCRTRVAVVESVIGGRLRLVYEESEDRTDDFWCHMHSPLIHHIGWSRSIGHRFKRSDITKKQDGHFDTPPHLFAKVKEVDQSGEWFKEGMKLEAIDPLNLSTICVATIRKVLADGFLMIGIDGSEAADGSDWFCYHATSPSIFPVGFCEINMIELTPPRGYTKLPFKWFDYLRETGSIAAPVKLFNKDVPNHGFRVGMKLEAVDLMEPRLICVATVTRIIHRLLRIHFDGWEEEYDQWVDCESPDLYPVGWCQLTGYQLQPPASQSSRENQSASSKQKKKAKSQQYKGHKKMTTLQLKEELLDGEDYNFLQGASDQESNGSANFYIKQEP

[3] = target: T2, Lethal(3)malignant brain tumor-like protein 3 (Homo sapiens, UniProt Q96JM7); assay: Inhibition of L3MBTL3 by alpha-screening
T2 sequence (Q96JM7 whole entry): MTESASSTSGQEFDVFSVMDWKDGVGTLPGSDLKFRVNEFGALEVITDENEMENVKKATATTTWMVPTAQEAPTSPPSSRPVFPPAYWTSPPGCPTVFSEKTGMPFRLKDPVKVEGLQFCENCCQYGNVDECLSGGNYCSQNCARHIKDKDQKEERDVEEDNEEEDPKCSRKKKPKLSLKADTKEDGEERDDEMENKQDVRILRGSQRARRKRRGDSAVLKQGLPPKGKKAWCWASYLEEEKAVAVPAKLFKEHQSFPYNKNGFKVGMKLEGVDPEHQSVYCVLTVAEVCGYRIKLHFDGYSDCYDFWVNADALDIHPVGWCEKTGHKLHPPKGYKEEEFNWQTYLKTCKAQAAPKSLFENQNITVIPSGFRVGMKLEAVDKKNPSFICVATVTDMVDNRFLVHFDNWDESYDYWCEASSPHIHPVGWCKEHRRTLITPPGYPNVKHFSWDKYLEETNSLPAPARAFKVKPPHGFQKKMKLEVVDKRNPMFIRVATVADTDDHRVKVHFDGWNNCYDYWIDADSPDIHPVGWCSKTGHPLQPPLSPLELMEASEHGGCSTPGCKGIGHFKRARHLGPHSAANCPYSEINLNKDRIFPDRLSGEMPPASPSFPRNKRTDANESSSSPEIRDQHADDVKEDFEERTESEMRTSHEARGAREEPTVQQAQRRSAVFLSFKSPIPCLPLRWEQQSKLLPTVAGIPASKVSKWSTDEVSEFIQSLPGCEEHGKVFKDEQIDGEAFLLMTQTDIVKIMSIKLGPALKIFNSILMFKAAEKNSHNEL

[4] = target: T3, Lethal(3)malignant brain tumor-like protein 1 (Homo sapiens, UniProt Q9Y468); assay: Inhibition of L3MBTL1 by alpha-screening
T3 sequence (Q9Y468 whole entry): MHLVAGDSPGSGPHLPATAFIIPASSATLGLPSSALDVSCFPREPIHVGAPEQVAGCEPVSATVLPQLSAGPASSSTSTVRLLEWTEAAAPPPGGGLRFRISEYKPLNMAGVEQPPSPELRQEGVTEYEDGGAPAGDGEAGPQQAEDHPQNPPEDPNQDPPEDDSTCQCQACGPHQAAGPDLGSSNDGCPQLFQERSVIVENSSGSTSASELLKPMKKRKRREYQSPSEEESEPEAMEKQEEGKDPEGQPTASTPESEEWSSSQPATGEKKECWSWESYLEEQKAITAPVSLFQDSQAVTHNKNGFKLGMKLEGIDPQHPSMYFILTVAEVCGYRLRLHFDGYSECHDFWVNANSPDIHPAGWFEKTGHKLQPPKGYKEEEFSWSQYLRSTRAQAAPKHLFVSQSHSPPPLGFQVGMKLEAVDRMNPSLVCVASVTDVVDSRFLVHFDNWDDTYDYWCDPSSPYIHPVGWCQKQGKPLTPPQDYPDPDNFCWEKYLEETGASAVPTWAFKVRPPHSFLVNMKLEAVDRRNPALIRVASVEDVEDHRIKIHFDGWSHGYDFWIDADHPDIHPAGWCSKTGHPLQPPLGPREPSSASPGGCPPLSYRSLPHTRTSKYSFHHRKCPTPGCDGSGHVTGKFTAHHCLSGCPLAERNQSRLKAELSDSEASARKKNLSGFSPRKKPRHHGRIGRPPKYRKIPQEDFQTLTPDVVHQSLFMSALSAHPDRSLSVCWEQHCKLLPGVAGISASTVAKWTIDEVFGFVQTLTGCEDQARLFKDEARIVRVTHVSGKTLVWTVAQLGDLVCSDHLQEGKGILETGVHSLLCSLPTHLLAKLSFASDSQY

[5] = AlphaScreen counterscreen signal interference at 100 uM

SMILES	IC50 [2] [µM]	Activity [5] [%]	IC50 [1] [µM]	IC50 [3] [µM]	IC50 [4] [µM]
CNCCCC1Sc2ccccc2Oc2ccccc21 (stereo unspecified)	> 100	–	> 100	–	14
CCc1cc(OCCCCNC)ccc1Cl	> 100	–	> 100	–	96
CCN(CC)CC#CCOC(=O)C(O)(c1ccccc1)C1CCCCC1 (stereo unspecified) [OXYBUTYNIN]	> 100	–	> 100	–	> 100
CCN(CC)CCCNS(=O)(=O)c1ccc(F)c(Cl)c1	> 100	8	> 100	–	> 100
CN(C)CCC(c1ccc(Cl)cc1)c1ccccn1 (stereo unspecified) [CHLORPHENIRAMINE]	34	–	–	–	–
CNCC1CCN(CCc2ccc(Cl)cc2)CC1	> 100	–	> 100	–	69
Cc1ncc(CCCCN(C)C)c2c1[nH]c1ccccc12	73	15	> 100	5.7	21
CNCCCCOc1ccc(C)cc1OC	> 100	30	92	84	> 100
CC(CCN(C)C)OC(=O)c1ccc(C(C)c2ccccc2)o1 (stereo unspecified)	66	22	> 100	75	84

More lines, main results first:

IC50 [2] [µM]	Activity [5] [%]	SMILES	IC50 [1] [µM]	IC50 [3] [µM]	IC50 [4] [µM]
> 100	–	CNCCC1OC(c2ccc(Cl)cc2)Cc2ccccc21 (stereo unspecified)	78	–	–
> 100	5	CNCCCCc1ccccc1	> 100	> 100	68
> 100	3	CNCCCC(C#N)(c1ccccc1C)C(C)C (stereo unspecified)	> 100	> 100	18
59	–	Cc1ccc(S(=O)(=O)NCCCN2CCCC2)cc1	> 100	–	17
> 100	35	CN(C)CCC(=O)c1cc2c(cc1Br)OCCCO2	12	> 100	> 100
> 100	8	CNCCCCOc1ccc(Cc2ccccc2)cc1	> 100	> 100	91
37	3	CN(C)CCCNC(=O)C1(O)c2cc(Br)ccc2NC(=O)N1c1ccc(Cl)cc1 (stereo unspecified)	> 100	–	52
> 100	-6	CCN(CC)CCCNS(=O)(=O)c1cc(OC)ccc1OC	> 100	48	> 100

Reference: ChEMBL document CHEMBL1275333, “Identification of non-peptide malignant brain tumor (MBT) repeat antagonists by virtual screening of commercially available compounds” (J Med Chem, 2010)
